Common to all, as to format: in vivo
The subject of assay [1] is forced swimming-induced immobility in mice. Put plainly: mouse forced swim test (inhibition of forced swimming-induced immobility). Conditions: male NMRI/BOM mice. The text has this:
(§1) In order to modulate the activity of systems responsible for antidepressant activity, we have characterized the interaction between gaboxadol and escitalopram (an SSRI) in a behavioral model of serotonin reuptake inhibition, i.e. the mouse 5-HTP potentiation test, and a model that is predictive of antidepressant activity, i.e. the mouse forced swim test (cf. C. Sánchez et al., 2003, Psychopharmacology 167, 353-362).
(§2) Male NMRI/BOM mice (18-25 g; Bomholtgaard, Denmark) were used. The mice were housed in plastic cages (35×30×12 cm), 10 animals in each, and habituated to the animal facilities for at least a week before test. The room temperature (21±2° C.), relative humidity (55±5%), and air exchange (16 times per h) were automatically controlled. The animals had free access to commercial food pellets and tap water before test.
A mouse that is forced to swim in a spatially constrained container will exert a characteristic immobile posture. Pretreatment with an antidepressant will counteract this effect. The test was conducted as described in detail by Sánchez and Meier (Psychopharmacol. 129, 197-205, 1997). Briefly, a fully automated test system with 6 swim units (2000 ml glass jars filled with 1200 ml soiled water (23-25° C.) in which a mouse had been placed previously) was used. […] The accumulated duration of immobility was measured during the last 3 min. […]

Assay [2] concerns 5-HTP-induced behaviour in mice. Put plainly: mouse 5-HTP potentiation test (potentiation of 5-HTP-induced behaviour). Conditions: gaboxadol 2.5 mg/kg with escitalopram 0.5 to 0.025 mg/kg, s.c., 30 min before i.v. 5-HTP 100 mg/kg, male NMRI/BOM mice.
From the text: as §1, §2
The test procedure for studies in mice is described in detail by Hyttel et al., 1992, J. Neural. Transm. Gen. Sect. 88, 157-60. Briefly, 30 min after subcutaneous (s.c.) administration of test compound, mice were given intravenous (i.v.) 5-HTP (100 mg/kg). Thereafter the animals were evaluated in their home cage during a 15-min observation period with respect to stereotypy (lateral head movements), tremor, and hind limb abduction. One point was given for each symptom being present. A total of 8-16 mice were used per dose. Inhibition of forced swimming-induced immobility.

The subject of assay [3] is rat chronic mild stress (CMS) model of depression. Put plainly: rat chronic mild stress (CMS) model of depression, sucrose consumption. Conditions: male Wistar rats. The source says: The rat chronic mild stress (CMS) model of depression has a high degree of predictive validity for antidepressant activity (Willner, 1997, Psychopharmacol. 134, 319-329). Furthermore, the procedure is an appropriate model to study onset of antidepressant action in animals (C. Sánchez et al., 2003, Behavioural Pharmacology 14, 465-470). The principle of the model is based on the relation between stress and affective disorders. Rats exposed to chronic stress will show a reduced sensitivity to rewards (e.g. a palatable sucrose solution).
Male Wistar rats (Gorzkowska, Warsaw) were brought into the laboratory two months before the start of the experiment. The animals were singly housed with food and water freely available, and maintained on a 12-h light/dark cycle at a temperature of 22±2° C., except as described below.
The animals were first trained to consume a 1% sucrose solution; training consisted of eight 1 h baseline tests in which sucrose was presented, in the home cage, following 14 h food and water deprivation; intake was measured by weighing pre-weighed bottles containing the sucrose solution, at the end of the test. Subsequently, sucrose consumption was monitored, under similar conditions, throughout the whole experiment. […] Body weights were assessed a baseline and by the end of drug treatment.

For the compound `Oc1noc2c1CCNC2` [gaboxadol, Gaboxadol], in assay [1] (gaboxadol 2.5 mg/kg alone, 30 min before test), the “activity by itself in the forced swim test” value is on record as “not active by itself”. In addition, in assay [1] (gaboxadol 2.5 mg/kg with escitalopram 2.5 and 5 mg/kg), the “potentiation of the antidepressant-like effect of escitalopram in the forced swim test” value was “potentiated the antidepressant-like effect of escitalopram (2.5 and 5 mg/kg) significantly”. The “potentiation of the acute effects of escitalopram in the 5-HTP potentiation test” value in assay [2] is listed as “strongly potentiated the acute effects of escitalopram”. Also, the “effect in the rat chronic mild stress model at 2.5 mg/kg per day” value in assay [3] (2.5 mg/kg per day, intraperitoneal) is “clear and significant effect”. In assay [3] (twice daily intraperitoneal injections for five weeks), the “anti-depressant-like effect in the rat chronic mild stress model” value is recorded as “significant anti-depressant-like effect”.
